Measured values from patent US9365619B2, “IgG-binding peptide and method for detecting and purifying IgG using same” (Otsuka Chemical Co., Ltd., priority 2011, dated 2016).
Bridge positions count the residues as written; N and C are the ends. Peptide text beside a SMILES is read from it.

Target: human IgG
Assay: Surface plasmon resonance (SPR) analysis of synthetic peptide binding to human IgG
Conditions: for Kd: SPR, synthetic peptide binding to human IgG, read-out: Kd; for affinity compared with the original peptide, in words: compared with GFc-C35-3/15
Procedure: In order to narrow down the amino acid region to be studied, a peptide in which one amino acid was deleted from each end of GFc-C35 (GFc-C35-2/16) and a peptide in which two amino acids were deleted from each end of CFc-C35 (GFc-C35-3/15) were synthesized. Among these peptides, based on the GFc-C35-3/15 synthetic peptide, the effect of the introduction of amino acid mutations on affinity was evaluated. That is, the contribution of each amino acid substitution to affinity was evaluated by synthesizing peptides substituted with frequently or occasionally observed amino acids obtained from the phage libraries and subjecting the resulting synthetic peptides to binding analysis.
Based on the synthetic peptide C35A, peptides substituted with amino acids observed at high frequency in the aforementioned phage libraries were synthesized by introducing amino acid mutations, and in a similar manner to the above, their binding to human IgG was analyzed by surface plasmon resonance (SPR) analysis to evaluate the contribution of each amino acid substitution to affinity.

Structure (SMILES) | Kd [µM] | affinity compared with the parent peptide, in words (compared with GFc-C35-3/15 (T7H, N8R)) | affinity compared with the original peptide, in words | fold increase in affinity (fold decrease in Kd value) (relative to original peptide GFc-C35-3/15)
CC(C)C[C@@H]1NC(=O)[C@H](CCC(=O)O)NC(=O)CNC(=O)[C@H](CCCNC(=N)N)NC(=O)[C@H](Cc2c[nH]cn2)NC(=O)[C@H](Cc2ccc(O)cc2)NC(=O)[C@H](C)NC(=O)[C@@H](NC(=O)[C@H](CC(=O)O)NC(=O)[C@H](CC(=O)O)NC(=O)CN)CSSC[C@@H](C(=O)N[C@H](C(=O)N[C@@H](Cc2ccccc2)C(=O)N[C@@H](Cc2c[nH]cn2)C(N)=O)[C@@H](C)O)NC(=O)[C@H](Cc2c[nH]c3ccccc23)NC(=O)[C@H](C(C)C)NC1=O [C35A (P2D), GDDCAYHRGELVWCTFH] (H-GDDCAYHRGELVWCTFH-NH2; disulfide 4-14) | 0.0133 | – | – | –
CC(C)C[C@@H]1NC(=O)[C@H](CCC(=O)O)NC(=O)CNC(=O)[C@H](CCCNC(=N)N)NC(=O)[C@H](Cc2c[nH]cn2)NC(=O)[C@H](Cc2ccc(O)cc2)NC(=O)[C@H](C)NC(=O)[C@@H](NC(=O)[C@H](CC(=O)O)NC(=O)[C@@H]2CCCN2C(=O)[C@@H](N)CO)CSSC[C@@H](C(=O)N[C@H](C(=O)N[C@@H](Cc2ccccc2)C(=O)N[C@@H](Cc2c[nH]cn2)C(N)=O)[C@@H](C)O)NC(=O)[C@H](Cc2c[nH]c3ccccc23)NC(=O)[C@H](C(C)C)NC1=O [C35A (G1S), SPDCAYHRGELVWCTFH] (H-SPDCAYHRGELVWCTFH-NH2; disulfide 4-14) | 0.0093 | – | – | –
CC(C)C[C@@H]1NC(=O)[C@H](CCC(=O)O)NC(=O)CNC(=O)[C@H](CCCNC(=N)N)NC(=O)[C@H](Cc2c[nH]cn2)NC(=O)[C@H](Cc2ccc(O)cc2)NC(=O)[C@H]([C@@H](C)O)NC(=O)[C@@H](NC(=O)[C@@H](N)CC(=O)O)CSSC[C@@H](C(=O)N[C@H](C(N)=O)[C@@H](C)O)NC(=O)[C@H](Cc2c[nH]c3ccccc23)NC(=O)[C@H](C(C)C)NC1=O [GFc-C35-3/15 (T7H, N8R, N10E), DCTYHRGELVWCT] (H-DCTYHRGELVWCT-NH2; disulfide 2-12) | 0.27 | affinity-enhancing effect | – | –
CC(C)C[C@@H]1NC(=O)[C@H](CCCNC(=N)N)NC(=O)CNC(=O)[C@H](CC(N)=O)NC(=O)[C@H]([C@@H](C)O)NC(=O)[C@H](Cc2ccc(O)cc2)NC(=O)[C@H]([C@@H](C)O)NC(=O)[C@@H](NC(=O)[C@@H](N)CC(=O)O)CSSC[C@@H](C(=O)N[C@H](C(N)=O)[C@@H](C)O)NC(=O)[C@H](Cc2c[nH]c3ccccc23)NC(=O)[C@H](C(C)C)NC1=O [GFc-C35-3/15 (N10R), DCTYTNGRLVWCT] (H-DCTYTNGRLVWCT-NH2; disulfide 2-12) | 42 | – | higher affinity than the original peptide | –
CC(C)C[C@@H]1NC(=O)[C@H](CC(N)=O)NC(=O)CNC(=O)[C@H](CC(N)=O)NC(=O)[C@H]([C@@H](C)O)NC(=O)[C@H](Cc2ccc(O)cc2)NC(=O)[C@H]([C@@H](C)O)NC(=O)[C@@H](NC(=O)[C@@H](N)CCCNC(=N)N)CSSC[C@@H](C(=O)N[C@H](C(N)=O)[C@@H](C)O)NC(=O)[C@H](Cc2c[nH]c3ccccc23)NC(=O)[C@H](C(C)C)NC1=O [GFc-C35-3/15 (D3R), RCTYTNGNLVWCT] (H-RCTYTNGNLVWCT-NH2; disulfide 2-12) | 69 | – | an increase in affinity | –
CC(C)C[C@@H]1NC(=O)[C@H](CCC(N)=O)NC(=O)CNC(=O)[C@H](CC(N)=O)NC(=O)[C@H]([C@@H](C)O)NC(=O)[C@H](Cc2ccc(O)cc2)NC(=O)[C@H]([C@@H](C)O)NC(=O)[C@@H](NC(=O)[C@@H](N)CC(=O)O)CSSC[C@@H](C(=O)N[C@H](C(N)=O)[C@@H](C)O)NC(=O)[C@H](Cc2c[nH]c3ccccc23)NC(=O)[C@H](C(C)C)NC1=O [GFc-C35-3/15 (N10Q), DCTYTNGQLVWCT] (H-DCTYTNGQLVWCT-NH2; disulfide 2-12; N-terminus and C-terminus assumed) | 160 | – | almost equal affinity | –
CC[C@H](C)[C@@H]1NC(=O)[C@H](CC(C)C)NC(=O)[C@H](CC(N)=O)NC(=O)CNC(=O)[C@H](CC(N)=O)NC(=O)[C@H]([C@@H](C)O)NC(=O)[C@H](Cc2ccc(O)cc2)NC(=O)[C@H]([C@@H](C)O)NC(=O)[C@@H](NC(=O)[C@@H](N)CC(=O)O)CSSC[C@@H](C(=O)N[C@H](C(N)=O)[C@@H](C)O)NC(=O)[C@H](Cc2c[nH]c3ccccc23)NC1=O [GFc-C35-3/15 (V12I), DCTYTNGNLIWCT] (H-DCTYTNGNLIWCT-NH2; disulfide 2-12) | 12 | – | – | –
CC(C)C[C@@H]1NC(=O)[C@H](CC(N)=O)NC(=O)CNC(=O)[C@H](CC(C)C)NC(=O)[C@H]([C@@H](C)O)NC(=O)[C@H](Cc2ccc(O)cc2)NC(=O)[C@H]([C@@H](C)O)NC(=O)[C@@H](NC(=O)[C@@H](N)CC(=O)O)CSSC[C@@H](C(=O)N[C@H](C(N)=O)[C@@H](C)O)NC(=O)[C@H](Cc2c[nH]c3ccccc23)NC(=O)[C@H](C(C)C)NC1=O [GFc-C35-3/15 (N8L), DCTYTLGNLVWCT] (H-DCTYTLGNLVWCT-NH2; disulfide 2-12) | 260 | – | greatly degreased affinity | –
CC(C)C[C@@H]1NC(=O)[C@H](CCC(=O)O)NC(=O)CNC(=O)[C@H](CCCNC(=N)N)NC(=O)[C@H](Cc2c[nH]cn2)NC(=O)[C@H](Cc2ccc(O)cc2)NC(=O)[C@H](C)NC(=O)[C@@H](NC(=O)[C@H](CO)NC(=O)[C@@H]2CCCN2C(=O)CN)CSSC[C@@H](C(=O)N[C@H](C(=O)N[C@@H](Cc2ccccc2)C(=O)N[C@@H](Cc2c[nH]cn2)C(N)=O)[C@@H](C)O)NC(=O)[C@H](Cc2c[nH]c3ccccc23)NC(=O)[C@H](C(C)C)NC1=O [C35A (D3S), GPSCAYHRGELVWCTFH] (H-GPSCAYHRGELVWCTFH-NH2; disulfide 4-14) | 0.0285 | – | – | –
CC(C)C[C@@H]1NC(=O)[C@H](CCC(=O)O)NC(=O)CNC(=O)[C@H](CCCNC(=N)N)NC(=O)[C@H](Cc2c[nH]cn2)NC(=O)[C@H](Cc2ccc(O)cc2)NC(=O)[C@H](C)NC(=O)[C@@H](NC(=O)[C@H](CCCNC(=N)N)NC(=O)[C@@H]2CCCN2C(=O)CN)CSSC[C@@H](C(=O)N[C@@H](CO)C(=O)N[C@@H](Cc2ccccc2)C(=O)N[C@@H](Cc2c[nH]cn2)C(N)=O)NC(=O)[C@H](Cc2c[nH]c3ccccc23)NC(=O)[C@H](C(C)C)NC1=O [C35A (D3R, T15S), GPRCAYHRGELVWCSFH] (H-GPRCAYHRGELVWCSFH-NH2; disulfide 4-14) | 0.042 | – | – | –
CC(C)C[C@@H]1NC(=O)[C@H](CC(N)=O)NC(=O)CNC(=O)[C@H](CC(N)=O)NC(=O)[C@H](CO)NC(=O)[C@H](Cc2ccc(O)cc2)NC(=O)[C@H]([C@@H](C)O)NC(=O)[C@@H](NC(=O)[C@@H](N)CC(=O)O)CSSC[C@@H](C(=O)N[C@H](C(N)=O)[C@@H](C)O)NC(=O)[C@H](Cc2c[nH]c3ccccc23)NC(=O)[C@H](C(C)C)NC1=O [GFc-C35-3/15 (T7S), DCTYSNGNLVWCT] (H-DCTYSNGNLVWCT-NH2; disulfide 2-12) | 26 | – | – | –
CC(C)C[C@@H]1NC(=O)[C@H](CC(N)=O)NC(=O)CNC(=O)[C@H](CC(N)=O)NC(=O)[C@H]([C@@H](C)O)NC(=O)[C@H](Cc2c[nH]c3ccccc23)NC(=O)[C@H]([C@@H](C)O)NC(=O)[C@@H](NC(=O)[C@@H](N)CC(=O)O)CSSC[C@@H](C(=O)N[C@H](C(N)=O)[C@@H](C)O)NC(=O)[C@H](Cc2c[nH]c3ccccc23)NC(=O)[C@H](C(C)C)NC1=O [GFc-C35-3/15 (Y6W), DCTWTNGNLVWCT] (H-DCTWTNGNLVWCT-NH2; disulfide 2-12) | 50 | – | increased affinity | –
CC(C)C[C@@H]1NC(=O)[C@H](CCC(=O)O)NC(=O)CNC(=O)[C@H](CCCNC(=N)N)NC(=O)[C@H](Cc2c[nH]cn2)NC(=O)[C@H](Cc2ccc(O)cc2)NC(=O)[C@H](C)NC(=O)[C@@H](NC(=O)[C@H](CC(=O)O)NC(=O)[C@@H]2CCCN2C(=O)CN)CSSC[C@@H](C(=O)N[C@H](C(=O)N[C@@H](Cc2ccccc2)C(=O)N[C@@H](Cc2ccc(O)cc2)C(N)=O)[C@@H](C)O)NC(=O)[C@H](Cc2c[nH]c3ccccc23)NC(=O)[C@H](C(C)C)NC1=O [C35A (H17Y), GPDCAYHRGELVWCTFY] (H-GPDCAYHRGELVWCTFY-NH2; disulfide 4-14) | 0.012 | – | – | –
CC(C)C[C@@H]1NC(=O)[C@H](CC(N)=O)NC(=O)CNC(=O)[C@H](CCCNC(=N)N)NC(=O)[C@H]([C@@H](C)O)NC(=O)[C@H](Cc2ccc(O)cc2)NC(=O)[C@H]([C@@H](C)O)NC(=O)[C@@H](NC(=O)[C@@H](N)CC(=O)O)CSSC[C@@H](C(=O)N[C@H](C(N)=O)[C@@H](C)O)NC(=O)[C@H](Cc2c[nH]c3ccccc23)NC(=O)[C@H](C(C)C)NC1=O [GFc-C35-3/15 (N8R), DCTYTRGNLVWCT] (H-DCTYTRGNLVWCT-NH2; disulfide 2-12) | 8 | – | greatly increased affinity | approximately 18 fold
CC(C)C[C@@H]1NC(=O)[C@H](CC(N)=O)NC(=O)CNC(=O)[C@H](CC(N)=O)NC(=O)[C@H]([C@@H](C)O)NC(=O)[C@H](Cc2ccc(O)cc2)NC(=O)[C@H]([C@@H](C)O)NC(=O)[C@@H](NC(=O)[C@@H](N)CC(=O)O)CSSC[C@@H](C(=O)N[C@@H](CO)C(N)=O)NC(=O)[C@H](Cc2c[nH]c3ccccc23)NC(=O)[C@H](C(C)C)NC1=O [GFc-C35-3/15 (T15S), DCTYTNGNLVWCS] (H-DCTYTNGNLVWCS-NH2; disulfide 2-12) | 34 | – | – | –
